Experiments:
Assay in all cases: GsX GloSensor assay with Gsα/q11
Type in all cases: cell-based
[1] = test system: human melanopsin L207^5.42A mutant; settings: 16.7 μM AA92593, COS-1 cells
Protocol: (§1) Based on the docking and MD simulations of human melanopsin with AA92593, importance of the interactions of Trp-189^ECL2 and Leu-207^5.42 with the antagonist was experimentally examined using the GsX GloSensor assay. To validate the interaction between Trp-189^ECL2 and AA92593, substitutions of W189^ECL2F, W189^ECL2I, or W189^ECL2V in human melanopsin were tested. […] To assess the importance of Leu-207^5.42 in the interaction with AA92593, substitutions L207^5.42V, L207^5.42A, or L207^5.42F in human melanopsin were tested. […] Of note, the L207^5.42F substitution enhanced the sensitivity (∼8%) of human melanopsin to AA92593 (Fig. 5F), although the difference was not statistically significant (Fig. 5H). Dose-dependent curve of reduction in the GsX GloSensor signals of the L207^5.42F was shifted by ∼0.6 μM from the curve of WT (Fig. 5I). The introduction of a Phe residue at position 207^5.42 caused additional interactions between the phenyl ring in Phe-207^5.42 and some functional groups in AA92593. The marked changes in the antagonistic effects of Trp-189^ECL2 and Leu-207^5.42 substitutions are consistent with our molecular simulations, showing that these residues are located at the antagonist-binding site (Fig. 4B).
(§2) For GloSensor assay, opsins, GloSensor assay sensor (coded by pGlo-22F), and NanoBiT-tagged G proteins were transiently expressed in COS-1 cells (kindly provided from Dr David Farrens, Oregon Health and Science University) using PEI as described previously ([24], [52]). For the GsX GloSensor assay ([12], [13]), each well of a 96-well assay plate (Corning) was transfected with 50 ng opsin plasmid, 16.7 ng G protein plasmid, 50 ng pGlo-22F plasmid (Promega), and 500 ng PEI in 25 μl Opti-mem and 75 μl Dulbecco's modified Eagle's medium (D-MEM). For NanoBiT G protein dissociation assay, each well of a 96-well assay plate was transfected with 50 ng opsin plasmid, 5 ng Lg-BiT inserted Gqα (Gqα-LgBiT) plasmid, 25 ng Gβ1 plasmid, 25 ng Sm-BiT fused Gγ2 plasmid, 5 ng RIC8A plasmid, and 500 ng PEI in 25 μl Opti-mem and 75 μl D-MEM. For GFP-fluorescence microscopy, a 35-mm cell culture dish (IWAKI) was transfected with 2 μg melanopsin-GFP plasmid and 8 μg PEI in 400 μl Opti-mem and 1.2 ml D-MEM. For melanopsin purification, ten of 100-mm cell culture dishes (NEST) were transfected with 150 μg melanopsin plasmid and 500 μg PEI in 25 ml Opti mem and 75 ml D-MEM.
(§3) The transfected COS-1 cells were incubated at 37 °C, 5% CO2 for 2 days, and the medium was aspirated and exchanged with 50 μl of HBSS (145 mM NaCl, 10 mM D-glucose, 5 mM KCl, 1 mM MgCl2, 1.7 mM CaCl2, 1.5 mM NaHCO3, 10 mM Hepes, pH 7.4), containing 33.3, 20, 10, 2, 0.2, 0.02, 0.002, or 0 μM AA92593, 0.5% dimetyl sulfoxide (DMSO), and 4% (vol/vol) GloSensor cAMP reagent stock solution. Under our experimental conditions, >50 μM AA92593 was not fully dissolved in the HBSS solution, and we set maximal concentration of AA92593 (Glixx Laboratories) at 33.3 μM (final concentration of 16.7 μM, see below). Then, the cells were incubated at room temperature for 1 h, and luminescence changes were monitored. After incubation of the cells with AA92593, luminescence measurement was interrupted, the plate was ejected, and the cells were added with 50 μl of HBSS containing 0.2 μM 9-cis-retinal. The final exogenous AA92593 concentrations were 16.7, 10, 5, 1, 0.1, 0.01, 0.001, or 0 μM, and retinal concentration was 0.1 μM. Twenty millimolars of stock solution of AA92593 was prepared in DMSO, and final concentration of DMSO was kept at 0.25% regardless final AA92593 concentration. Then, the cells were incubated at room temperature for 1 h. Luminescence was measured using GM-2000 or GM-3510 microplate reader (Promega). Luminescence level of each well was measured every 30 s with integration time of 0.6 to 0.9 s. […]

[2] = target: T1, human melanopsin L207^5.42F mutant (Homo sapiens, UniProt Q9UHM6, L239F)
T1 construct: the C-terminal amino acid residues (94, 140, 200, 214, 296, and 308 residues); expressed in transfected cells; host or cells: COS-1
T1 sequence (Q9UHM6 1-384 L239F limits assumed): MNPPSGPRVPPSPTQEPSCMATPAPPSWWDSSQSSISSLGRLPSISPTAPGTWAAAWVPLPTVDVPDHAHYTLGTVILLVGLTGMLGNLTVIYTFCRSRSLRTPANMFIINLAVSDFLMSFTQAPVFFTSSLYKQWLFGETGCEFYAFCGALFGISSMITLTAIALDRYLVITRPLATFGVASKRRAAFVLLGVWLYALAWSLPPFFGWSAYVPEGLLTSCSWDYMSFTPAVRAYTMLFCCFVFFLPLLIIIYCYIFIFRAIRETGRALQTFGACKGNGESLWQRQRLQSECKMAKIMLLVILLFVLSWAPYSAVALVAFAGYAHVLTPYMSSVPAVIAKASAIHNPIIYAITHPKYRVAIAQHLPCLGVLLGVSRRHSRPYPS
Protocol: as §1, §2, §3

[3] = test system: human melanopsin L207^5.42V mutant; settings: 16.7 μM AA92593, COS-1 cells
Protocol: as §1, §2, §3

[4] = test system: human melanopsin W189^ECL2F mutant; settings: 16.7 μM AA92593, COS-1 cells
Protocol: as §1, §2, §3

[5] = target: T2, human melanopsin W189^ECL2I mutant (Homo sapiens, UniProt Q9UHM6, W223I); settings: 16.7 μM AA92593, COS-1 cells
T2 construct: expressed in transfected cells; host or cells: COS-1
Protocol: as §1, §2, §3

[6] = target: T3, human melanopsin W189^ECL2V mutant (Homo sapiens, UniProt Q9UHM6, W223V); settings: 16.7 μM AA92593, COS-1 cells
T3 construct: expressed in transfected cells; host or cells: COS-1
Protocol: as §1, §2, §3

[7] = relative peak cAMP response vs no AA92593

T3 sequence (Q9UHM6 1-384 W223V limits assumed): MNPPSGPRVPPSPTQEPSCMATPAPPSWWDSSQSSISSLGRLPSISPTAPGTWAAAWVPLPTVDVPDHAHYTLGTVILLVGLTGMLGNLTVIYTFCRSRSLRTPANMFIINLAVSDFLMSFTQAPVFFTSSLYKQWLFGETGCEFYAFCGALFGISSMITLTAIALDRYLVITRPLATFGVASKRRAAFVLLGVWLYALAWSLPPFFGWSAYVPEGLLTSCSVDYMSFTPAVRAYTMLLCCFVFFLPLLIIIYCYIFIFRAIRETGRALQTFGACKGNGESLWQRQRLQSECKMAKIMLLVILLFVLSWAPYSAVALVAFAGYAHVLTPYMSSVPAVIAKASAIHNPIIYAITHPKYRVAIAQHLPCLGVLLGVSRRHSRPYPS
T2 sequence (Q9UHM6 1-384 W223I limits assumed): as the sequence (Q9UHM6 1-384 W223V limits assumed) above, with V223I counted along it

Structure (SMILES): COc1ccc(S(=O)(=O)N2CCCCC2)cc1C [AA92593]
- reduced antagonistic effect of AA92593 vs WT [1]: ~12%
- Hill fitting parameter rate of dose-response curve [2]: −0.88 ± 0.29
- enhanced sensitivity to AA92593 vs WT ([2]; 16.7 μM AA92593, COS-1 cells, Gsα/q11, difference not statistically significant): ~8%
- IC50 ([2]; COS-1 cells, n = 3, read-out: IC50, reduction in peak cAMP responses upon Gsα/q11 activation): 0.35 ± 0.16 µM
- Hill fitting parameter max of dose-response curve [2, 7]: 98.88 ± 4.88
- Hill fitting parameter min of dose-response curve [2, 7]: 3.15 ± 9.9
- reduced antagonistic effect of AA92593 vs WT [3]: ~15%
- decrease in sensitivity to AA92593 vs WT [4]: ~60%
- inhibitory effect of AA92593 compared to WT [5]: significantly weaker
- inhibitory effect of AA92593 compared to WT [6]: significantly weaker
